Assay [1] can be described thus: Binding affinity to [13C]-labelled amyloid beta (1 to 42) fibrils assessed as change in morphology of fibrillation at 50 uM after 1 hr using uranyl acetate dye by Transmission electron microscopy.
A short description of assay [2]: Binding affinity to G9 of [13C]-labelled N-terminus amyloid beta (1 to 42) fibrils after 48 hrs by 2D-DARR spectroscopy.
The nature of assay [3]: Binding affinity to [13C]-labelled at 17-21 positions of amyloid beta (1 to 42) fibrils by NMR spectroscopy.
Assay [4] in a line: Binding affinity to V12 of [13C]-labelled N-terminus amyloid beta (1 to 42) fibrils after 48 hrs by 2D-DARR spectroscopy.
A short description of assay [5]: Binding affinity to [13C]-labelled at 17-21 positions of amyloid beta (1 to 42) fibrils after 48 hrs by 2D-DARR spectroscopy.
The nature of assay [6]: Binding affinity to A2 of [13C]-labelled N-terminus amyloid beta (1 to 42) fibrils after 48 hrs by 2D-DARR spectroscopy.
The nature of assay [7]: Binding affinity to F4 of [13C]-labelled N-terminus amyloid beta (1 to 42) fibrils after 48 hrs by 2D-DARR spectroscopy.

Activity calls are given as the source filed them. The calls are words filed in the database; no cut-off is given here.

Consider one compound from ChEMBL document CHEMBL1914396, “Solid-state NMR analysis of interaction sites of curcumin and 42-residue amyloid β-protein fibrils” (Bioorg Med Chem, 2011).

As to `COc1cc(/C=C/C(=O)CC(=O)/C=C/c2ccc(O)c(OC)c2)ccc1O`, the result in assay [1], in assay [2], in assay [6] and in assay [7] was inactive. Besides, the outcome in assay [3], in assay [4] and in assay [5] was Active.
